Assay results published in patent US10407488B2, “Therapy for treatment or prevention of conditions associated with bleeding or hypocoagulation” (THE REGENTS OF THE UNIVERSITY OF CALIFORNIA, priority 2013, dated 2019).

Test system: aPTT clotting time in murine plasma
Test: aPTT clotting assay in murine plasma with rhAPC
Type: biochemical, mouse
Details: 5 U/mL FVa variants, APC, ~100 seconds without FVa
Method: APC-mediated inactivation of FVa was analyzed in ETP assays and aPTT clotting assays. FVa mutants were incubated with equal volumes of either recombinant human APC (Xigris®) or buffer in human and murine Balb/c plasma.
Plasma (50 μL) was mixed with 50 μL of a PTT reagent (APTT-XL, Pacific Hemostasis) and incubated at 37° C. for 3 minutes in the presence of FVa either with recombinant human APC or buffer. Following addition of 25 μL of 50 mM CaCl2 in HBS, 0.5% BSA, the clotting time was recorded using an ST4 coagulometer (Diagnostica Stago).

^superFVa: engineered APC-resistant FVa variant (SEQ ID NO:4): R306Q, R506Q, R679Q, Cys609-Cys1691 disulfide, S2183A, B-domain deleted
aPTT: fully corrected the aPTT
